ChEMBL document CHEMBL2146389, “Possible conformation of amphotericin B dimer in membrane-bound assembly as deduced from solid-state NMR” (Bioorg Med Chem, 2012)

Columns and labels:
[1] = Binding affinity to ergosterol-containing palmitoyloleoylphosphatidylcholine membrane at 0.84 uM by UV spectra analysis; assay type: physicochemical
[2] = Hemolytic activity against human erythrocytes after 18 hrs by spectrophotometry; assay type: ADME, cell-based; details: Erythrocyte
Aspergillus niger = assay: Antifungal activity against Aspergillus niger assessed as minimum compound concentration per disc required for inhibition zone formation after 50 hrs by disc diffusion assay; assay type: functional
[3] = Binding affinity to ergosterol-containing palmitoyloleoylphosphatidylcholine membrane by UV spectra analysis; assay type: physicochemical
[4] = Binding affinity to ergosterol-containing palmitoyloleoylphosphatidylcholine membrane at 1.67 uM by UV spectra analysis; assay type: physicochemical
[5] = Ratio of amphotericin B EC50 to compound EC50 for human erythrocytes; assay type: ADME, cell-based, Erythrocyte; details: read-out: Ratio EC50

SMILES	EC50 [2] [µM]	Activity (Aspergillus niger) [µg]	further results
COC(=O)[C@H]1[C@@H]2C[C@@H](O[C@@H]3O[C@H](C)[C@@H](O)[C@H](NCCCNC(=O)CNC(=O)[C@H]4[C@@H]5C[C@@H](O[C@@H]6O[C@H](C)[C@@H](O)[C@H](N)[C@@H]6O)/C=C/C=C/C=C/C=C/C=C/C=C/C=C/[C@H](C)[C@@H](O)[C@@H](C)[C@H](C)OC(=O)C[C@H](O)C[C@H](O)CC[C@@H](O)[C@H](O)C[C@H](O)C[C@](O)(C[C@@H]4O)O5)[C@@H]3O)/C=C/C=C/C=C/C=C/C=C/C=C/C=C/[C@H](C)[C@@H](O)[C@@H](C)[C@H](C)OC(=O)C[C@H](O)C[C@H](O)CC[C@@H](O)[C@H](O)C[C@H](O)C[C@](O)(C[C@@H]1O)O2			Activity [1]: Active
C[C@@H]1[C@H](O)[C@@H](C)/C=C/C=C/C=C/C=C/C=C/C=C/C=C/[C@H](O[C@@H]2O[C@H](C)[C@@H](O)[C@H](N)[C@@H]2O)C[C@@H]2O[C@](O)(C[C@@H](O)C[C@@H](O)[C@H](O)CC[C@@H](O)C[C@@H](O)CC(=O)O[C@H]1C)C[C@H](O)[C@H]2C(=O)O [AMPHOTERICIN B]	2	10	Activity [3]: Active
COC(=O)[C@H]1[C@@H]2C[C@@H](O[C@@H]3O[C@H](C)[C@@H](O)[C@H](N)[C@@H]3O)/C=C/C=C/C=C/C=C/C=C/C=C/C=C/[C@H](C)[C@@H](O)[C@@H](C)[C@H](C)OC(=O)C[C@H](O)C[C@H](O)CC[C@@H](O)[C@H](O)C[C@H](O)C[C@](O)(C[C@@H]1O)O2 [AMPHOTERICIN B ME ESTER]			Activity [4]: Active
C[C@@H]1[C@H](O)[C@@H](C)/C=C/C=C/C=C/C=C/C=C/C=C/C=C/[C@H](O[C@@H]2O[C@H](C)[C@@H](O)[C@H](NCCCNC(=O)CNC(=O)[C@@H]3[C@@H](O)[C@H](F)[C@@]4(O)C[C@@H](O)C[C@@H](O)[C@H](O)CC[C@@H](O)C[C@@H](O)CC(=O)O[C@@H](C)[C@H](C)[C@H](O)[C@@H](C)/C=C/C=C/C=C/C=C/C=C/C=C/C=C/[C@H](O[C@@H]5O[C@H](C)[C@@H](O)[C@H](N)[C@@H]5O)C[C@@H]3O4)[C@@H]2O)C[C@@H]2O[C@](O)(C[C@@H](O)C[C@@H](O)[C@H](O)CC[C@@H](O)C[C@@H](O)CC(=O)O[C@H]1C)C[C@H](O)[C@H]2C(=O)O[13CH3]	13	50	selectivity ratio [5]: 6
